This is an account of results in patent US20230114241A1, “METHODS OF TREATING EPILEPSY USING THE SAME” (Trevena, Inc., priority 2019, published 2023).

Chain of human sphingosine-1-phosphate receptor 1 (S1P1) (P21453 whole entry): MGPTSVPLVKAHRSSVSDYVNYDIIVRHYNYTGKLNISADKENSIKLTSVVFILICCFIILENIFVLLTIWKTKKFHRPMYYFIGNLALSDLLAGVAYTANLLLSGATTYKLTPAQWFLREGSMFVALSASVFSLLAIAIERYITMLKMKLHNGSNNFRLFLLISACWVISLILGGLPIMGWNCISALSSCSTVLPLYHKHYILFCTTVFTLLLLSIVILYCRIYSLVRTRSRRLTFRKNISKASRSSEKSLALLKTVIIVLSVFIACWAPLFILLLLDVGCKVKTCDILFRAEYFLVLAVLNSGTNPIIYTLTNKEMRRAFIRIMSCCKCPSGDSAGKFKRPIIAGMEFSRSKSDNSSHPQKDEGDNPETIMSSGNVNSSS

The target of one assay is human sphingosine-1-phosphate receptor 1 (S1P1) (Homo sapiens, UniProt P21453). Description: Inhibition of cAMP production (HTRF cAMP HiRange), S1P1 CHO-K1 cells. The format is cell-based. The conditions noted are these: inhibition of cAMP production, S1P1; read-out: hS1P1 CAMP pEC50 (converted). As for the experimental part:
Stable clonal Chinese hamster ovary K1 (CHO-K1) cells co-expressing EA-β-arrestin2 and the human sphingosine-1-phosphate receptor 1 (NM_001400, S1P1) with a C-terminal Prolink™ tag were purchased from DiscoverX corporation (Cat #: 93-0207C2).
Cell lines were cultured in AssayComplete™ Media 6 (DiscoverX Corporation, Cat #: 920018GF2) at 37° C. and 5% CO2 in a humidified CO2 and temperature-controlled incubator. To begin assay plating, cells were washed with Dulbecco's phosphate buffered saline (CellGro, Cat #: 21-031-CV) and lifted from the culturing flask by incubation (37° C., 5 min) with CellStripper (Cellgro, Cat #: 25-056-CI). […] Plated cells were incubated overnight at 37° C. and 5% CO2 in a humidified CO2 and temperature-controlled incubator.
Agonist-promoted G-protein responses were determined by measuring changes in intracellular cAMP using the HTRF® cAMP HiRange kit (CisBio, Cat #: 62AM6PEJ) based on time-resolved fluorescence resonance energy transfer (TR-FRET) technology. […] Following a 30-minute incubation at 37° C. and 5% CO2 in a humidified CO2 and temperature-controlled incubator, the components of the cAMP HiRange kit were added as per the manufacturer's instructions. After an hour incubation at room temperature, plates were analyzed by a BMG PheraStar microplate reader.
These values are normalized to fingolimod, a known agonist of the sphingosine-1-phosphate 1 receptor.
With `CCC1(CC)CC(=O)c2cc(-c3nc(-c4cncc(NS(C)(=O)=O)c4)no3)ccc2O1` [Compound 545, N-(5-(5-(2,2-diethyl-4-oxochroman-6-yl)-1,2,4-oxadiazol-3-yl)pyridin-3-yl)methanesulfonamide], the EC50 was less than 316 nM.
Same read-out and setting: the result for `COc1cnccc1-c1nc(-c2ccc3c(c2)nnn3C(C)C)no1` [Compound 606, 3-(1-isopropyl-1H-benzo[d][1,2,3]triazol-5-yl)-5-(3-methoxy-pyridin-4-yl)-1,2,4-oxadiazole] reads less than 316 nM; that for `Cc1cccc2oc(-c3ccc4c(c3)nnn4C(C)C)nc12` [Compound 418, 2-(1-isopropyl-1H-benzo[d][1,2,3]triazol-5-yl)-4-methyl-benzo[d]oxazole], less than 316 nM.
Still for that read-out and setting: the result for `C=CCNc1ccc(-c2ccc(-c3ccc4c(c3)nnn4C(C)C)cc2)cc1C#N` [Compound 508, 4-(allylamino)-4′-(1-isopropyl-1H-benzo[d][1,2,3]triazol-5-yl)-[1,1′-biphenyl]-3-carbonitrile] reads more than 316 nM; that for `CCC1(CC)CC(=O)c2cc(-c3nc(-c4ccsc4)no3)ccc2N1` [Compound 554, 2,2-diethyl-6-(3-(thiophen-3-yl)-1,2,4-oxadiazol-5-yl)-2,3-dihydroquinolin-4(1H)-one], less than 316 nM.

The same assay, now with this note: inhibition of cAMP production; potency; read-out: hS1P1 CAMP pEC50 (converted).
For `Cc1ccccc1-c1noc(-c2ccc3c(c2)nnn3CC2CC2)n1` [Compound 288, 1-(cyclopropylmethyl)-5-[3-(2-methylphenyl)-1,2,4-oxadiazol-5-yl]-1H-1,2,3-benzotriazole], the EC50 was more than 316 nM.
Still for that read-out and setting: the result for `CC(C)n1nnc2cc(-c3noc(-c4ccc(COc5ccccc5)cc4)n3)ccc21` [Compound 131, 3-(1-isopropyl-1H-benzo[d][1,2,3]triazol-5-yl)-5-(4-(phenoxy-methyl)phenyl)-1,2,4-oxadiazole] reads more than 316 nM; that for `CC(C)n1ncc2cc(-c3nc(-c4ccccc4O)no3)ccc21` [Compound 333, 2-(5-(1-isopropyl-1H-indazol-5-yl)-1,2,4-oxadiazol-3-yl)phenol], less than 316 nM.
On the same count and under the same terms, then `CC(C)n1nnc2cc(-c3nc(-c4ccccn4)no3)ccc21` [Compound 241, 1-(propan-2-yl)-5-[3-(pyridin-2-yl)-1,2,4-oxadiazol-5-yl]-1H-1,2,3-benzotriazole], with more than 316 nM.
The same measure, in the same setting: then `CC(C)n1nnc2cc(-c3noc(C4CCCCC4)n3)ccc21` [Compound 127, 5-(5-cyclohexyl-1,2,4-oxadiazol-3-yl)-1-(propan-2-yl)-1H-1,2,3-benzotriazole], with more than 316 nM; and `CCC1(CC)CC(=O)c2cc(-c3nsc(-c4cccnc4)n3)ccc2O1` [Compound 137, 2,2-diethyl-6-(5-(pyridin-3-yl)-1,2,4-thiadiazol-3-yl)chroman-4-one], with less than 316 nM; and `CC(C)CCn1nnc2cc(-c3nc(-c4ccccc4)no3)ccc21` [Compound 271, 1-(3-methylbutyl)-5-(3-phenyl-1,2,4-oxadiazol-5-yl)-1H-1,2,3-benzotriazole], with more than 316 nM.
As to `Clc1ccc(-c2noc(-c3ccc4c(c3)nnn4C3CCOCC3)n2)s1` [Compound 82, 5-[3-(5-chlorothiophen-2-yl)-1,2,4-oxadiazol-5-yl]-1-(oxan-4-yl)-1H-1,2,3-benzotriazole], the EC50 is more than 316 nM.
Regarding `O=C1CC2(CCCCC2)Oc2ccc(-c3nc(-c4ccncc4)no3)cc21` [Compound 280, 6-[3-(pyridin-4-yl)-1,2,4-oxadiazol-5-yl]-3,4-dihydrospiro[1-benzopyran-2,1′-cyclohexane]-4-one], the EC50 was more than 316 nM.
Consider `N#Cc1cc(-c2nnc(-c3ccc4[nH]ncc4c3)o2)ccc1NCCF` [Compound 353, 2-[(2-fluoroethyl)amino]-5-[5-(1H-indazol-5-yl)-1,3,4-oxadiazol-2-yl]benzonitrile], for which the EC50 is less than 316 nM.
Same read-out and setting: then `COc1cc(C)c(-c2noc(-c3ccc4c(c3)nnn4C(C)C)n2)c(OC)c1` [Compound 136, 5-[3-(2,4-dimethoxy-6-methylphenyl)-1,2,4-oxadiazol-5-yl]-1-(propan-2-yl)-1H-1,2,3-benzotriazole], with more than 316 nM; and `COc1cccc(OC)c1-c1noc(-c2ccc3c(ccn3C(C)C)c2)n1` [Compound 325, 3-(2,6-dimethoxy-phenyl)-5-(1-isopropyl-indol-5-yl)-1,2,4-oxadiazole], with more than 316 nM; and `CC(C)n1nnc2cc(-c3nc(-c4ccccc4)no3)ccc21` [Compound 79, 5-(3-phenyl-1,2,4-oxadiazol-5-yl)-1-(propan-2-yl)-1H-1,2,3-benzotriazole], with less than 316 nM.
On the same count and under the same terms, then `CC(C)n1nnc2cc(-c3noc(-c4ccc(C5CCCCC5)cc4)n3)ccc21` [Compound 290, 5-(4-cyclohexylphenyl)-3-(1-isopropyl-1H-benzo[d][1,2,3]triazol-5-yl)-1,2,4-oxadiazole], with more than 316 nM; and `FC(F)(F)Oc1ccccc1-c1nc(-c2ccc3c(c2)nnn3C2CCCC2)no1` [Compound 84, 3-(1-cyclopentyl-1H-benzo[d][1,2,3]triazol-5-yl)-5-(2-(trifluoro-methoxy)phenyl)-1,2,4-oxadiazole], with more than 316 nM.
The same measure, in the same setting: then `CC(C)Nc1ccc(-c2nnc(-c3ccc4[nH]ncc4c3)o2)cc1C#N` [Compound 351, 5-[5-(1H-indazol-5-yl)-1,3,4-oxadiazol-2-yl]-2-[(propan-2-yl)amino]benzonitrile], with less than 316 nM; and `Brc1ccccc1-c1noc(-c2ccc3[nH]nnc3c2)n1` [Compound 190, 5-[3-(2-bromophenyl)-1,2,4-oxadiazol-5-yl]-1H-1,2,3-benzotriazole], with more than 316 nM; and `COc1cccc(OC)c1-c1noc(-c2ccc3c(c2)nnn3C(C)C)n1` [Compound 251, 3-(2,6-dimethoxy-phenyl)-5-(1-isopropyl-benzotriazol-5-yl)-1,2,4-oxadiazole], with more than 316 nM.
As to `Cc1ccsc1-c1noc(-c2ccc3c(c2)nnn3CC(C)(C)O)n1` [Compound 140], the EC50 is less than 316 nM.
As for `FC(F)Oc1ccc(-c2noc(-c3ccc4c(c3)nnn4C3CCCC3)n2)cc1` [Compound 80, 1-cyclopentyl-5-{3-[4-(difluoromethoxy)phenyl]-1,2,4-oxadiazol-5-yl}-1H-1,2,3-benzotriazole], the EC50 was less than 316 nM.
On the same count and under the same terms, the result for `CC(C)n1nnc2cc(-c3nc(-c4ccc5nncn5c4)no3)ccc21` [Compound 128, 1-(propan-2-yl)-5-(3-{[1,2,4]triazolo[4,3-a]pyridin-6-yl}-1,2,4-oxadiazol-5-yl)-1H-1,2,3-benzotriazole] reads more than 316 nM.
The same measure, in the same setting: the result for `COc1ccc(-c2nc(-c3ccc4c(c3)nnn4C(C)C)no2)c(C)c1` [Compound 90, 3-(1-isopropyl-1H-benzo[d][1,2,3]triazol-5-yl)-5-(4-methoxy-2-methylphenyl)-1,2,4-oxadiazole] reads more than 316 nM.
For the compound `CC(C)n1ncc2cc(-c3nc(-c4cccc5c4OCCC5)no3)ccc21` [Compound 337, 3-chroman-8-yl-5-(1-isopropylindazol-5-yl)-1,2,4-oxadiazole], the EC50 was less than 316 nM.
Same read-out and setting: the result for `COc1ccc(-c2noc(-c3ccc4c(c3)nnn4C(C)C)n2)cc1OC` [Compound 230, 3-(3,4-dimethoxy-phenyl)-5-(1-isopropyl-1H-benzo[d][1,2,3]triazol-5-yl)-1,2,4-oxadiazole] reads more than 316 nM; that for `CC(F)(F)CNc1ccc(-c2nc(-c3ccc4c(c3)CCC(=O)N4)no2)cc1C#N` [Compound 347, 2-[(2,2-difluoropropyl)amino]-5-[3-(2-oxo-1,2,3,4-tetrahydro-quinolin-6-yl)-1,2,4-oxadiazol-5-yl]benzonitrile], less than 316 nM.
As to `CC(C)n1nnc2cc(-c3noc(-c4ccccc4C#N)n3)ccc21` [Compound 279, 2-(3-(1-isopropyl-1H-benzo[d][1,2,3]triazol-5-yl)-1,2,4-oxadiazol-5-yl)benzonitrile], the EC50 was more than 316 nM.
The same measure, in the same setting: then `CC(C)n1nnc2cc(-c3nc(-c4ccccc4Br)no3)ccc21` [Compound 282, 5-[3-(2-bromophenyl)-1,2,4-oxadiazol-5-yl]-1-(propan-2-yl)-1H-1,2,3-benzotriazole], with less than 316 nM; and `COc1cccc(-c2noc(-c3ccc4c(c3)nnn4C3CCCC3)n2)n1` [Compound 124, 1-cyclopentyl-5-[3-(6-methoxypyridin-2-yl)-1,2,4-oxadiazol-5-yl]-1H-1,2,3-benzotriazole], with more than 316 nM.
With `Cc1cc(C)cc(Cc2noc(-c3ccc4c(c3)nnn4C(C)C)n2)c1` [Compound 126, 5-{3-[(3,5-dimethyl-phenyl)methyl]-1,2,4-oxadiazol-5-yl}-1-(propan-2-yl)-1H-1,2,3-benzotriazole], the EC50 is more than 316 nM.
For `Cc1cc(-c2nc(-c3ccc4c(c3)nnn4C(C)C)no2)cc(C)n1` [Compound 156, 5-(2,6-dimethyl-pyridin-4-yl)-3-(1-isopropyl-1H-benzo[d][1,2,3]triazol-5-yl)-1,2,4-oxadiazole], the EC50 is less than 316 nM.
Regarding `CC(C)CCn1nnc2cc(-c3nc(-c4ccc(C(F)(F)F)c(F)c4)no3)ccc21` [Compound 122, 5-{3-[3-fluoro-4-(trifluoromethyl)phenyl]-1,2,4-oxadiazol-5-yl}-1-(3-methyl-butyl)-1H-1,2,3-benzotriazole], the EC50 is more than 316 nM.
